This note sets out measurements from article PMC11412156 (Journal of medicinal chemistry, 2024).

One data set addresses T1, HDAC6 (Homo sapiens, UniProt Q9UBN7).
T1 sequence (Q9UBN7 1-1215): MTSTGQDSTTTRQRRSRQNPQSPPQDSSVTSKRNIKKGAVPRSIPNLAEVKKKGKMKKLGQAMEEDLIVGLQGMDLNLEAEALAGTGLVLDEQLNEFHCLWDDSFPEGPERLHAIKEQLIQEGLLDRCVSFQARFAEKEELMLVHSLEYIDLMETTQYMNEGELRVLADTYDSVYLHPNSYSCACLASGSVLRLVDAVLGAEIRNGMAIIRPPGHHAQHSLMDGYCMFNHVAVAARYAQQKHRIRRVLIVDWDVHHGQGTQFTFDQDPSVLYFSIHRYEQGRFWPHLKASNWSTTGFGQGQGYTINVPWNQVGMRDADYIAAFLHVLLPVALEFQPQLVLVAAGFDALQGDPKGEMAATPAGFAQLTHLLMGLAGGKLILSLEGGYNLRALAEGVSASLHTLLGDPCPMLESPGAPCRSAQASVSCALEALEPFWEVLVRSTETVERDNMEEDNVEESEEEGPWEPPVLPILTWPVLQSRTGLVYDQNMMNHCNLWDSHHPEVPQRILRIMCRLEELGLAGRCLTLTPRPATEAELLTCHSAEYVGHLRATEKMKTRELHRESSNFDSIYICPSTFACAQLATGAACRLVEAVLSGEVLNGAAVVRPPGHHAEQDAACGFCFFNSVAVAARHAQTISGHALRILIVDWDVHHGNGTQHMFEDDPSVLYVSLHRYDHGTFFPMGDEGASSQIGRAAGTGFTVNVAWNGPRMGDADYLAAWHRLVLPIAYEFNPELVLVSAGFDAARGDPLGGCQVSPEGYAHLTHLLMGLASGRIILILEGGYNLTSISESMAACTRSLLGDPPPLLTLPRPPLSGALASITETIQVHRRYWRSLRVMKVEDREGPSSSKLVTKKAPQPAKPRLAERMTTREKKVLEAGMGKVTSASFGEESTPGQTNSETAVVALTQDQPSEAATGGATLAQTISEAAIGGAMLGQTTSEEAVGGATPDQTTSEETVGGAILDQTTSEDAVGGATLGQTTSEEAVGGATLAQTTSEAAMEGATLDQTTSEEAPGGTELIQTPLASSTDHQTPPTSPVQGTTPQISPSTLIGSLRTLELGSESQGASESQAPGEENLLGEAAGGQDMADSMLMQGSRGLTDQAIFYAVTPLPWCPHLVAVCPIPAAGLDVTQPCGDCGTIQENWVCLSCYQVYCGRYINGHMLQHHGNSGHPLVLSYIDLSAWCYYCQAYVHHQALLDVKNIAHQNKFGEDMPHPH
Briefly: HDAC enzyme-based fluorogenic assay, HDAC6. It counts as biochemical. The settings on record: final concentration of 2 μM, preliminary screen.

Data set [1] deals with xylene-induced ear swelling inflammation in mice. Briefly: Xylene-induced ear swelling inflammation model in mice. It counts as in vivo, Kunming mice. To be noted: Table 7 dose study, 10 mg/kg by gavage for 7 days.
Data set [2] concerns formalin-induced inflammatory pain in mice. Briefly: Formalin-induced inflammatory pain model in mice. The format is in vivo, Kunming mice. To be noted: dose study, Figure 15; 10 mg/kg, compared with the model group.
Another data set concerns the target T2, HsEH (Homo sapiens, UniProt P34913).
T2 sequence (P34913 1-555): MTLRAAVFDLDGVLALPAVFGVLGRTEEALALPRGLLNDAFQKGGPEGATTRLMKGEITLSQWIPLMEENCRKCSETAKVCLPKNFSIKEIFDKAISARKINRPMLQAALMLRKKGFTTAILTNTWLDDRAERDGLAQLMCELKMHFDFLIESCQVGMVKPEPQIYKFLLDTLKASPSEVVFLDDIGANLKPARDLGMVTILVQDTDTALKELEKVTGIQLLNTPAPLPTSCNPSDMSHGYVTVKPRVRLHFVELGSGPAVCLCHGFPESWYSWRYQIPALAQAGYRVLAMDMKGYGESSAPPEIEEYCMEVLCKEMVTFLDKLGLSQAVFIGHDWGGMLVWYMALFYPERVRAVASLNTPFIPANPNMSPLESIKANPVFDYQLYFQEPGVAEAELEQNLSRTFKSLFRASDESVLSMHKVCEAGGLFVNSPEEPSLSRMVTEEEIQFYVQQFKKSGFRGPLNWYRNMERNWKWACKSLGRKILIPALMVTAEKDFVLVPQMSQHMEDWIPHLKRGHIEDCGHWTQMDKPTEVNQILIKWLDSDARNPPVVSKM
Kind of data set: fluorescent-based sEH assay with PHOME as substrate. The format is biochemical.

For another data set, the target named is T3, MsEH (Mus musculus, UniProt P34914).
T3 sequence (P34914 1-554): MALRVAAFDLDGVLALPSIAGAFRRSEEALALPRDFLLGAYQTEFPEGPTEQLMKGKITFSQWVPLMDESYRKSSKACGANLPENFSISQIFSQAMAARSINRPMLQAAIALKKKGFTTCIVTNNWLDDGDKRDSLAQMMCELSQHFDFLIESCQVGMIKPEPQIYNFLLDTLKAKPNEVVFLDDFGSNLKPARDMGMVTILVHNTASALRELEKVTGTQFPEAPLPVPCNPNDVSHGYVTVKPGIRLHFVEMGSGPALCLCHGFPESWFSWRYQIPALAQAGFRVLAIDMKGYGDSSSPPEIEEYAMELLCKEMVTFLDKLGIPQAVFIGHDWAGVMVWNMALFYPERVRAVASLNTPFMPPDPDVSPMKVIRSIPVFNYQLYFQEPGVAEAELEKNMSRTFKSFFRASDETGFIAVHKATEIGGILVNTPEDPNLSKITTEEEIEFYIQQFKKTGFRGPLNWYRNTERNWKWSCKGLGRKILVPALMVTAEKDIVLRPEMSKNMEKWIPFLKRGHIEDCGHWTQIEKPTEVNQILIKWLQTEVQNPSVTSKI
The description is as above. It counts as biochemical.

The nature of data set [3]: In vitro metabolic stability in rat liver microsomes. The format is in vitro ADME. The settings on record: for metabolic stability in RLM, column 0: incubation 0 min; for metabolic stability in RLM, column 0 / metabolic stability in RLM, column 10 / metabolic stability in RLM, column 30 / metabolic stability in RLM, column 45 / metabolic stability in RLM, column 60: 37 °C, NADPH; for metabolic stability in RLM, column 10: incubation 10 min; for metabolic stability in RLM, column 30: incubation 30 min; for metabolic stability in RLM, column 45: incubation 45 min; for metabolic stability in RLM, column 60: incubation 60 min; for t1/2 in RLM: rat liver microsomes.

In turn, `O=C(CCCCCCNC(=O)[C@H]1CCCN(C(=O)c2ccc(NC(=O)NC(c3ccccc3)c3ccccc3)c(F)c2)C1)NO` [Compound 28k, (S)-1-(4-(3-Benzhydrylureido)-3-fluorobenzoyl)-N-(7-(hydroxyamino)-7-oxoheptyl) piperidine-3-carboxamide] registered an HDAC6 inhibitor rate on HDAC6 of 63.58%.

In turn, `C[C@]12C[C@@H]3C[C@](C)(C1)C[C@@](NC(=O)Nc1ccc(C(=O)N4CCC[C@H](C(=O)NCCCCCCC(=O)NO)C4)cc1F)(C3)C2` [Compound 7d, (S)-1-(4-(3-((1r,3R,5S,7S)-3,5-Dimethyladamantan-1-yl)ureido)-3-fluorobenzoyl)-N-(7-(hydroxyamino)-7-oxoheptyl)piperidine-3-carboxamide] gave an HDAC6 inhibitor rate at HDAC6 of 63%.

In data set [1], `Cc1ccc(-c2cc(C(F)(F)F)nn2-c2ccc(S(N)(=O)=O)cc2)cc1` [Celecoxib, reference compound] showed an Inhibition rate of 32.83%, a Swelling degree of 10.5 ± 1.5 mg and a Swelling rate of 74.21%. Also, the “pain response, second phasic response” value in data set [2] is listed as “reduced the pain response”.

For the compound `Cc1cc(NC(=O)Nc2ccc(C(=O)N3CCC[C@H](C(=O)NCCCCCCC(=O)NO)C3)cc2F)ccc1F` [Compound 28i, (S)-1-(3-Fluoro-4-(3-(4-fluoro-3-methylphenyl)ureido)benzoyl)-N-(7-(hydroxyamino)-7-oxoheptyl)piperidine-3-carboxamide], the figures for the IC50 on HsEH and on MsEH were 1.2 nM and 7.7 nM, respectively.

In the case of `O=C(CCCCCCNC(=O)[C@H]1CCCN(C(=O)c2ccc(NC(=O)Nc3ccc(OC(F)(F)F)c(F)c3)c(F)c2)C1)NO` [Compound 28a, (S)-1-(3-Fluoro-4-(3-(3-fluoro-4-(trifluoromethoxy)phenyl)ureido)benzoyl)-N-(7-(hyd-roxyamino)-7-oxoheptyl)piperidine-3-carboxamide], the HDAC6 inhibitor rate on HDAC6 is reported as above 91%.

As to `Cc1ccc(NC(=O)Nc2ccc(C(=O)N3CCC[C@H](C(=O)NCCCCCCC(=O)NO)C3)cc2F)cc1F` [Compound 28h, (S)-1-(3-Fluoro-4-(3-(3-fluoro-4-methylphenyl)ureido)benzoyl)-N-(7-(hydroxyamino)-7-oxoheptyl)piperidine-3-carboxamide], the IC50 (commonly the point on the concentration scale where inhibition reaches its midpoint) was determined as 0.7 nM at HsEH and 7.4 nM on MsEH. The compound further yielded an HDAC6 inhibitor rate on HDAC6 above 91%.

`C[C@]12C[C@@H]3C[C@](C)(C1)C[C@@](NC(=O)Nc1ccc(CN4CCC[C@H](C(=O)NCCCCCCC(=O)NO)C4)cc1F)(C3)C2` [Compound 16d, (S)-1-(4-(3-((1r,3R,5S,7S)-3,5-Dimethyladamantan-1-yl)ureido)-3-fluorobenzyl)-N-(7-(hydroxyamino)-7-oxoheptyl)piperidine-3-carboxamide]: in data set [3], the “metabolic stability in RLM, column 0” value was found to be 100.00; the “metabolic stability in RLM, column 10” value amounted to 89.16; the “metabolic stability in RLM, column 30” value is on record as 79.33; the “metabolic stability in RLM, column 45” value came to 52.13. Besides, in data set [3], the “metabolic stability in RLM, column 60” value is reported as 46.62 and the “t1/2 in RLM” value came out at 0.8165 h. In addition, the HDAC6 inhibitor rate at HDAC6 is recorded as 63%.

For `O=C(CCCCCCNC(=O)[C@H]1CCCN(C(=O)c2ccc(NC(=O)Nc3ccc(F)c(Cl)c3)c(F)c2)C1)NO` [Compound 28e, (S)-1-(4-(3-(3-Chloro-4-fluorophenyl)ureido)-3-fluorobenzoyl)-N-(7-(hydroxyamino)-7-oxoheptyl)piperidine-3-carboxamide], the 50% inhibitory concentration (IC50) was 0.7 nM against HsEH and 5.4 nM on MsEH.

For `CC12CC3CC(C)(C1)CC(Nc1c(Nc4ccc(CN5CCC[C@H](C(=O)NCCCCCCC(=O)NO)C5)cc4F)c(=O)c1=O)(C3)C2` [Compound 34d, (S)-1-(4-((2-(((1r,3R,5S,7r)-3,5-Dimethyladamantan-1-yl)amino)-3,4-dioxocyclobut-1-en-1-yl)amino)-3-fluorobenzyl)-N-(7-(hydroxyamino)-7-oxoheptyl)piperidine-3-carb-oxamide], in data set [3], the “metabolic stability in RLM, column 0” value was 100.00; the “metabolic stability in RLM, column 10” value is 82.82; the “metabolic stability in RLM, column 30” value is listed as 73.29; the “metabolic stability in RLM, column 45” value came out at 66.27. In addition, in data set [3], the “metabolic stability in RLM, column 60” value stood at 50.51 and the “t1/2 in RLM” value was 1.223 h.
